Reference: ChEMBL document CHEMBL2157881, “Labeled Ligand Displacement: Extending NMR-Based Screening of Protein Targets” (ACS Med Chem Lett, 2010)
pKd, pKi: −log10 of the molar value. Values belong to the molecule of their own block, whether it stands above or below them. Calls of active or inactive are those of the source. The rule behind the calls is not given here.

Assays:
[1] = Binding affinity bovine carbonic anhydrase; design: species or system Bos taurus
[2] = Binding affinity bovine carbonic anhydrase by surface plasma resonance method; design: species or system Bos taurus
Bos taurus = species on record: Bos taurus; assay: Binding affinity bovine carbonic anhydrase assessed as broadening of compound signals using [13C]labeled compound at 20 uM by NMR spectroscopy
[3] = Binding affinity to HSP90 ATPase domain by TR-FRET assay
[4] = Binding affinity to HSP90 ATPase domain assessed as broadening of compound signals using [13C]labeled compound at 20 uM by NMR spectroscopy
[5] = Binding affinity HSP90 ATPase domain at 100 uM by STD competition spectroscopy
[6] = Binding affinity HSP90 ATPase domain assessed as broadening of compound signals using [13C]labeled compound at 200 uM by NMR spectroscopy

Structure (SMILES): Cc1cc(-c2ccccc2)nc(N)n1
pKi [3]: 4.85

Structure (SMILES): COc1ccc(Cl)cc1-c1cc(C)nc(N)n1
pKi [3]: 4.96
Activity [4]: Dose-dependent effect
Activity [5]: Active

Structure (SMILES): Cc1cc(-c2cccc3ccccc23)nc(N)n1
pKi [3]: 5.30
Activity [6]: Active

More lines, now with the values ahead:

pKi [1]: 4.32
Structure (SMILES): CCN1CCCC1CNC(=O)c1cc(S(N)(=O)=O)ccc1OC (centres undefined) [SULPIRIDE]

pKd [2]: 6.00
Activity (Bos taurus): Active
Structure (SMILES): NS(=O)(=O)c1ccc(F)cc1
